Assay results reported in ChEMBL document CHEMBL1255169, “Synthesis, structure-affinity relationships, and radiolabeling of selective high-affinity 5-HT4 receptor ligands as prospective imaging probes for positron emission tomography” (J Med Chem, 2010).
The source made the active and inactive calls. The rule behind the calls is not given here.

How the values were obtained:
[1] = target: 5-hydroxytryptamine receptor 6 (Homo sapiens, UniProt P50406); assay: Binding affinity to human 5-HT6 receptor
[2] = target: 5-hydroxytryptamine receptor 5A (Homo sapiens, UniProt P47898); assay: Binding affinity to human 5-HT5A receptor
[3] = target: 5-hydroxytryptamine receptor 1B (Homo sapiens, UniProt P28222); assay: Binding affinity to human 5-HT1B receptor
Mu-type opioid receptor = Mu-type opioid receptor (Homo sapiens, UniProt P35372); assay: Binding affinity to human mu opioid receptor
Histamine H3 receptor = Histamine H3 receptor (Cavia porcellus, UniProt Q9JI35); assay: Binding affinity to guinea pig histamine H3 receptor
[4] = target: T1, Alpha-2C adrenergic receptor (Homo sapiens, UniProt P18825); assay: Binding affinity to human adrenergic Alpha-2C receptor
T1 sequence (P18825 whole entry): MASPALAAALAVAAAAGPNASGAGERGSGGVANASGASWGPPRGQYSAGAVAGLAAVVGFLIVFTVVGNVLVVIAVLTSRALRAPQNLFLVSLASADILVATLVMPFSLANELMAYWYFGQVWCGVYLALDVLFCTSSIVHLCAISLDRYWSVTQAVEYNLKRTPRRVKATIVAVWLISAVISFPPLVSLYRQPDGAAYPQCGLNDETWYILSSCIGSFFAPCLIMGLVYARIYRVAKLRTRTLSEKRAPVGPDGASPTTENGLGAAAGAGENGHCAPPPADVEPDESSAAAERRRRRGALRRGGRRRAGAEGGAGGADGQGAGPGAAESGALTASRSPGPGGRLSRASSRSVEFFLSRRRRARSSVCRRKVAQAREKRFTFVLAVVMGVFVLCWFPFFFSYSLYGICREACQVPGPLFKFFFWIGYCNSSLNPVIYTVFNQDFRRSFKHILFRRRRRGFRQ

[5] = target: T2, 5-hydroxytryptamine receptor 2C (Homo sapiens, UniProt P28335); assay: Binding affinity to human 5-HT2C receptor
T2 sequence (P28335 whole entry): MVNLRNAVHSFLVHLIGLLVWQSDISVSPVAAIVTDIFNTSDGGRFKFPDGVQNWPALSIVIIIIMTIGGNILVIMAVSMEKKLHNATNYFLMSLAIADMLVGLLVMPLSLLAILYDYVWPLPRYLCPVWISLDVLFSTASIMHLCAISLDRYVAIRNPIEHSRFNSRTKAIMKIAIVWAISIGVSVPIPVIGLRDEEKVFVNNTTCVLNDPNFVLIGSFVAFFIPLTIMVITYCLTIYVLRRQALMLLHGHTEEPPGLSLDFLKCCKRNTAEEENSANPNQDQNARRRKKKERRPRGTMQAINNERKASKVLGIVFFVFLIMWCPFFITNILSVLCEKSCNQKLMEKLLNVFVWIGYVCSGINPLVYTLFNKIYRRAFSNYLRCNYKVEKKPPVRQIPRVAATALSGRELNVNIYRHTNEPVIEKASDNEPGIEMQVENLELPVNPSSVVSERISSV

[6] = Binding affinity to rat sigma 2 receptor
D(2) dopamine receptor = D(2) dopamine receptor (Rattus norvegicus, UniProt P61169); assay: Binding affinity to rat dopamine D2 receptor
D(1A) dopamine receptor = D(1A) dopamine receptor (Rattus norvegicus, UniProt P18901); assay: Binding affinity to rat dopamine D1 receptor
[7] = target: Alpha-2A adrenergic receptor (Homo sapiens, UniProt P08913); assay: Binding affinity to human adrenergic alpha2A receptor
Histamine H1 receptor = Histamine H1 receptor (Cavia porcellus, UniProt P31389); assay: Binding affinity to guinea pig histamine H1 receptor
[8] = target: 5-hydroxytryptamine receptor 1E (Homo sapiens, UniProt P28566); assay: Binding affinity to human 5-HT1E receptor
[9] = target: Sodium-dependent serotonin transporter (Homo sapiens, UniProt P31645); assay: Binding affinity to human SERT
D(4) dopamine receptor = target: T3, D(4) dopamine receptor (Rattus norvegicus, UniProt P30729); assay: Binding affinity to rat dopamine D4 receptor
T3 sequence (P30729 whole entry): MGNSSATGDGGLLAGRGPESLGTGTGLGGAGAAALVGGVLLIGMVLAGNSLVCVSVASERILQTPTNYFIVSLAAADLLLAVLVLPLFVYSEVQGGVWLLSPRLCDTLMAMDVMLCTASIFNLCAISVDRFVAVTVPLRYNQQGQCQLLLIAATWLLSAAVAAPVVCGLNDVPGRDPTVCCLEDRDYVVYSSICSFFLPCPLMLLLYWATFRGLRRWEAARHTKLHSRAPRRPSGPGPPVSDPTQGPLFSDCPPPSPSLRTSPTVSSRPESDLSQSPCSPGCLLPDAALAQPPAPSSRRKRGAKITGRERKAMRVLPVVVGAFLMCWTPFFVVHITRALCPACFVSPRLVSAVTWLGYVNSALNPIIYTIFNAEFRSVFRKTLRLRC

[10] = target: 5-hydroxytryptamine receptor 3A (Homo sapiens, UniProt P46098); assay: Binding affinity to human 5-HT3 receptor
[11] = target: Beta-2 adrenergic receptor (Rattus norvegicus, UniProt P10608); assay: Binding affinity to rat adrenergic beta2 receptor
[12] = target: Sodium-dependent dopamine transporter (Homo sapiens, UniProt Q01959); assay: Binding affinity to human DAT
[13] = target: T4, 5-hydroxytryptamine receptor 4 (Homo sapiens, UniProt Q13639); assay: Displacement of [3H]GR113808 from human recombinant 5HT4 receptor expressed in HEK293 cells; assay type: cell-based
[14] = target: Muscarinic acetylcholine receptor M4 (Homo sapiens, UniProt P08173); assay: Binding affinity to human muscarinic M4 receptor
[15] = target: T4, 5-hydroxytryptamine receptor 4; assay: Antagonist activity at 5HT4 receptor expressed in HEK293/L9 cells by cAMP assay; assay type: functional, cell-based
[16] = target: Muscarinic acetylcholine receptor M2 (Homo sapiens, UniProt P08172); assay: Binding affinity to human muscarinic M2 receptor
D(1B) dopamine receptor = D(1B) dopamine receptor (Homo sapiens, UniProt P21918); assay: Binding affinity to human dopamine D5 receptor
[17] = target: 5-hydroxytryptamine receptor 7 (Homo sapiens, UniProt P34969); assay: Binding affinity to human 5-HT7 receptor
[18] = target: T4, 5-hydroxytryptamine receptor 4; assay: Agonist activity at 5HT4 receptor expressed in HEK293/L9 cells by cAMP assay; assay type: functional, cell-based
[19] = target: T4, 5-hydroxytryptamine receptor 4; assay: Inverse agonist activity at 5HT4 receptor expressed in HEK293/L9 cells by cAMP assay; assay type: functional, cell-based

T4 sequence (Q13639 whole entry): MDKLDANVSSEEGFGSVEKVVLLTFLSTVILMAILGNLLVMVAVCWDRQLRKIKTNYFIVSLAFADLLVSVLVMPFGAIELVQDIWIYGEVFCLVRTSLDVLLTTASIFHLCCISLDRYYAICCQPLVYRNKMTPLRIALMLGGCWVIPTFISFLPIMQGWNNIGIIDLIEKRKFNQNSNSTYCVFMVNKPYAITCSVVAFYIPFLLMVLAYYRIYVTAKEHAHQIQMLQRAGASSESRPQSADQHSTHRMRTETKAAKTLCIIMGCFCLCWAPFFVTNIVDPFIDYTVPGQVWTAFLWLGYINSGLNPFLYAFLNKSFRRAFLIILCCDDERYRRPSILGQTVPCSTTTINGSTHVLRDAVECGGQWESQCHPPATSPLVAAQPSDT
Chain of Muscarinic acetylcholine receptor M2 (P08172 whole entry): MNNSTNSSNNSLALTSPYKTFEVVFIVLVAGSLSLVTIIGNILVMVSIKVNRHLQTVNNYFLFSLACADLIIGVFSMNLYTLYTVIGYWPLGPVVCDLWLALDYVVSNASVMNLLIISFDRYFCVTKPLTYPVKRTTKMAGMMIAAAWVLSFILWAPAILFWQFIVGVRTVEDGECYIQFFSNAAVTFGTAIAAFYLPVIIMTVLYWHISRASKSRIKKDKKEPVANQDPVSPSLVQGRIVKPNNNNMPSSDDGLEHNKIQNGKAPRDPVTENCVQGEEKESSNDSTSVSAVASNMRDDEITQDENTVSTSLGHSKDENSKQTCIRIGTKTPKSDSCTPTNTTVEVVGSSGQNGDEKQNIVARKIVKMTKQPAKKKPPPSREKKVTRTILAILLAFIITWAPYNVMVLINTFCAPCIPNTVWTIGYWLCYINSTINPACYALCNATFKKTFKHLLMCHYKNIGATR
Chain of Sodium-dependent dopamine transporter (Q01959 whole entry): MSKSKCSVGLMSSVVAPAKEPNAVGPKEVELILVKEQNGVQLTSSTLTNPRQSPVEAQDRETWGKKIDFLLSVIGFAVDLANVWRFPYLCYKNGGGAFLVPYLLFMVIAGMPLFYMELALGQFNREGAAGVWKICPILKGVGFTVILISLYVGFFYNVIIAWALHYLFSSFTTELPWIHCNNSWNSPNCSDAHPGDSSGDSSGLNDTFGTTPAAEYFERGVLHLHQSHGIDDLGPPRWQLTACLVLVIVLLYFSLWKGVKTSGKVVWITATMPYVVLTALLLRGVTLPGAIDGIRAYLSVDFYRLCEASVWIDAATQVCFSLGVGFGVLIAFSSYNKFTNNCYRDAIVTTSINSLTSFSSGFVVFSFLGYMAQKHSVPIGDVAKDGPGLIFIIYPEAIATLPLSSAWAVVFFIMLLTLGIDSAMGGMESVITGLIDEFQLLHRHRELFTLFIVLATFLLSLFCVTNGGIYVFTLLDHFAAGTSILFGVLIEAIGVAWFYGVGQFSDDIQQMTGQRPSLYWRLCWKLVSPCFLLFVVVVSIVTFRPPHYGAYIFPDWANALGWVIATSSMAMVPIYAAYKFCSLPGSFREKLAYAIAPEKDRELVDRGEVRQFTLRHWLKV
Chain of 5-hydroxytryptamine receptor 5A (P47898 whole entry): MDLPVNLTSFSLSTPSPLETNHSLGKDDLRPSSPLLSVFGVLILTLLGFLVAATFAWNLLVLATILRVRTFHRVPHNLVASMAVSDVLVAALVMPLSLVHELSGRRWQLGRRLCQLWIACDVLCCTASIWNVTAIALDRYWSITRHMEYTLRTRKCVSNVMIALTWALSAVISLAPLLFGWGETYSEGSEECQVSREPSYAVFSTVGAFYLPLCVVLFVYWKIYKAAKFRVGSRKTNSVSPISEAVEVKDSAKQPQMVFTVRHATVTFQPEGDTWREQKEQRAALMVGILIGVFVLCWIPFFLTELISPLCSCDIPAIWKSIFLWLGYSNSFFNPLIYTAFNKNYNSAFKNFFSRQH
Chain of Sodium-dependent serotonin transporter (P31645 whole entry): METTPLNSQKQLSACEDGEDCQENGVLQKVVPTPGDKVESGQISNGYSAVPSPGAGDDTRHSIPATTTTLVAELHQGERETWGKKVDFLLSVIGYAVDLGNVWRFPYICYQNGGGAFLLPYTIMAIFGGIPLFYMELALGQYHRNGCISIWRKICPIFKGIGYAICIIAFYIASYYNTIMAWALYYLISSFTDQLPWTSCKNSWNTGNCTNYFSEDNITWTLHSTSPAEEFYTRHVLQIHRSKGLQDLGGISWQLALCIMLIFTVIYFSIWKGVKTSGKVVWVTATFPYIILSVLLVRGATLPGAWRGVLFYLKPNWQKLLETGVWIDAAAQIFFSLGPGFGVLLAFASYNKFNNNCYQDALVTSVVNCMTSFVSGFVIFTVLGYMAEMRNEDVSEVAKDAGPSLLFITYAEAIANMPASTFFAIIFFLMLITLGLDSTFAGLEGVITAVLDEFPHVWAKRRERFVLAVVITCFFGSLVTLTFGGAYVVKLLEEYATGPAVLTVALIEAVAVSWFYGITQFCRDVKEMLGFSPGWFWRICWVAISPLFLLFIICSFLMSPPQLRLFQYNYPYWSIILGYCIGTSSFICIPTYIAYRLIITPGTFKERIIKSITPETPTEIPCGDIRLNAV
Chain of Histamine H3 receptor (Q9JI35 whole entry): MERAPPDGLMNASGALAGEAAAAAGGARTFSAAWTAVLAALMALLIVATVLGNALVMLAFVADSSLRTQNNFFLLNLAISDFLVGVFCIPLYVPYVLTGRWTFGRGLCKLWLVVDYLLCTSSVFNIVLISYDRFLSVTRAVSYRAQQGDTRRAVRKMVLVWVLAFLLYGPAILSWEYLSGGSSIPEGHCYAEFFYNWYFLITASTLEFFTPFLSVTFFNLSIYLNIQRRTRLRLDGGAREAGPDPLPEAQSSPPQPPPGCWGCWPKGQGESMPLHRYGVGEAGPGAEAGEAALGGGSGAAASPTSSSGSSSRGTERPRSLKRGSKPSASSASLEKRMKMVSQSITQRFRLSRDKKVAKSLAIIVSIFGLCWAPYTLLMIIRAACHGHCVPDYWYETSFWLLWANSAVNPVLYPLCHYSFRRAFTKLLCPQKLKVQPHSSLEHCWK
Chain of D(2) dopamine receptor (P61169 whole entry): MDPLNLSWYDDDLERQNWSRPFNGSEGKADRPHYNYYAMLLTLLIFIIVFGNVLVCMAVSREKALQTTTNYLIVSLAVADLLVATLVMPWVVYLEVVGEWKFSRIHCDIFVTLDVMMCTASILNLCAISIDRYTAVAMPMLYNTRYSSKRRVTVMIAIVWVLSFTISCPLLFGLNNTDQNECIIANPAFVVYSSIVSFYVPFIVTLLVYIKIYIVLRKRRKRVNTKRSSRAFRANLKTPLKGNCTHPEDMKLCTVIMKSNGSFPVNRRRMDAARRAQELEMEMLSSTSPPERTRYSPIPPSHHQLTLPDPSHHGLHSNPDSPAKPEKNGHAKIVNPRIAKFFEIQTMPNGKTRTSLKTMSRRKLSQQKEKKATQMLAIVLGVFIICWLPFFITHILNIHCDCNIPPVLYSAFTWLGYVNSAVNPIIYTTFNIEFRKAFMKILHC
Chain of 5-hydroxytryptamine receptor 3A (P46098 whole entry): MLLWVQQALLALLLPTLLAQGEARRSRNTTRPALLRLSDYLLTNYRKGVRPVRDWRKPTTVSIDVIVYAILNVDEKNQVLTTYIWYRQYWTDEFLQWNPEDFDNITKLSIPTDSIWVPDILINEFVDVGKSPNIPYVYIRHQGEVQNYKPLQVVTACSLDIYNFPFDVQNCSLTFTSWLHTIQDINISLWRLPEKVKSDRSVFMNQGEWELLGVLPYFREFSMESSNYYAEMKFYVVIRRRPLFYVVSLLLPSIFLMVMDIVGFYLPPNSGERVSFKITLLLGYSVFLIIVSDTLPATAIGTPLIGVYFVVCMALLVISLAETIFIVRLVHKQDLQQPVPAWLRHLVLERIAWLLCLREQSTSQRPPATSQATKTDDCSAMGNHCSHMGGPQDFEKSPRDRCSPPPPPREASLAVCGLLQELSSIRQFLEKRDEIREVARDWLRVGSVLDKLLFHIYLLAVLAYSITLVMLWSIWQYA
Chain of Muscarinic acetylcholine receptor M4 (P08173 whole entry): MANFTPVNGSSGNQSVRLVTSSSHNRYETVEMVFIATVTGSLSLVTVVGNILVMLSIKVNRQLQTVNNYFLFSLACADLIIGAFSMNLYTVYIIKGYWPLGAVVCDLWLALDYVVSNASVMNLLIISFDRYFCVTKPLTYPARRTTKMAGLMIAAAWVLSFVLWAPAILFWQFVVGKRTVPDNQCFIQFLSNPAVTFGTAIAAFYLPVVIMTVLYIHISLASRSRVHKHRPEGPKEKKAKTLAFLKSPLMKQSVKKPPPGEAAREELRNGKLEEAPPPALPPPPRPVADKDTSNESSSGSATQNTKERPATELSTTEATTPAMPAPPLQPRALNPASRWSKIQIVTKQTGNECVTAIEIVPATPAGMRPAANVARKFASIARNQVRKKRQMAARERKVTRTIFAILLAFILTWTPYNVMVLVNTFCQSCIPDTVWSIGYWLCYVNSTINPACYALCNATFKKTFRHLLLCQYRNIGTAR
Chain of 5-hydroxytryptamine receptor 7 (P34969 whole entry): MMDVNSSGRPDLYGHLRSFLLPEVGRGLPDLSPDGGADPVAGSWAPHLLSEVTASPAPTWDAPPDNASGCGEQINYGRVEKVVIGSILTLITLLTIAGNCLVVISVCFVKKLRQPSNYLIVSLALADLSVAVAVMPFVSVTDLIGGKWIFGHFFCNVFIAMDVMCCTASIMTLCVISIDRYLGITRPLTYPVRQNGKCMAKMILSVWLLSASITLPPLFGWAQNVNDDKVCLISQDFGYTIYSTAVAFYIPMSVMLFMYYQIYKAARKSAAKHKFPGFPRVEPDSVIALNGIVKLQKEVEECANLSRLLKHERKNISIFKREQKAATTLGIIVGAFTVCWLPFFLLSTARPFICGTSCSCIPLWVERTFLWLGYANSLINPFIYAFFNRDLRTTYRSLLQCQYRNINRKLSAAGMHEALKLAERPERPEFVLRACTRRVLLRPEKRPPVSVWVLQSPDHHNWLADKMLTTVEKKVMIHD

With `CCCCN1CCC(COC(=O)c2ccc(N)c(OC)c2)CC1` the Ki [1] was > 10 µM, the Ki [2] was > 10 µM and the Ki [3] was > 10 µM. The Ki (Mu-type opioid receptor) was > 10 µM, the Ki (Histamine H3 receptor) was 1.65 µM and the Ki [4] was 0.989 µM. The Ki [5] was > 10 µM, the Ki [6] was 0.148 µM and the Ki (D(2) dopamine receptor) was > 10 µM. The Ki (D(1A) dopamine receptor) was > 10 µM, the Ki [7] was > 10 µM and the Ki (Histamine H1 receptor) was > 10 µM. The Ki [8] was > 10 µM, the Ki [9] was > 10 µM and the Ki (D(4) dopamine receptor) was 1.27 µM. For the same compound, the Ki [10] was 3.51 µM, the Ki [11] was > 10 µM and the Ki [12] was > 10 µM. For the same compound, the Ki [13] was 0.0024 µM, the Ki [14] was 2.58 µM and the Efficacy [15] was “Active”. For the same compound, the Ki [16] was > 10 µM, the Ki (D(1B) dopamine receptor) was > 10 µM and the Ki [17] was > 10 µM.

Work on `CCCCN1CCC(COC(=O)c2cc(Cl)c(NC)c3c2OCCO3)CC1` yielded an EC50 [18] of 0.0141 µM, a Ki [1] of 0.489 µM and a Ki [2] of 8.59 µM. The Ki [3] was 0.82 µM, the Ki (Mu-type opioid receptor) was > 10 µM and the Ki (Histamine H3 receptor) was > 10 µM. The Ki [4] was 0.556 µM, the Efficacy [19] was “Active” and the Ki [5] was 0.685 µM. It also gave a Ki [6] of 0.008 µM, a Ki (D(2) dopamine receptor) of 0.22 µM and a Ki (D(1A) dopamine receptor) of 2.29 µM. It also gave a Ki [7] of 2.24 µM, a Ki (Histamine H1 receptor) of 2.73 µM and a Ki [9] of 9.01 µM. The Ki (D(4) dopamine receptor) was 0.043 µM, the Ki [10] was 1.07 µM and the Ki [11] was > 10 µM. The Ki [12] was 2.02 µM, the Ki [13] was 0.002 µM and the Ki [14] was 0.76 µM. The Ki [16] was 0.433 µM, the Ki (D(1B) dopamine receptor) was 0.972 µM and the Ki [17] was 5.7 µM.
